{"source": "patent US20120309934A1", "about": "“INTRACELLUAR TARGETING BIPODAL PEPTIDE BINDER” (priority 2009, published 2012)", "type_in_all_cases": "binding", "key": {"[1]": {"biological_target": "T1, VEGF (Homo sapiens, UniProt P15692)", "T1 construct": "Trx (thioredoxin, pET32a) (N, cleaved yes); made in house; host or cells: E. coli AD494 (pET32a)", "T1 sequence (P15692 27-147 isoform P15692-9 limits assumed)": "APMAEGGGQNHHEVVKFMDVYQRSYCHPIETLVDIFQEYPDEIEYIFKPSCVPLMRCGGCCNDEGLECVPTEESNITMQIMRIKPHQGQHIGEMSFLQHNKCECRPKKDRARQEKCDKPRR", "experiment": "Recombinant phage ELISA specificity to VEGF", "details": "recombinant phage ELISA against several proteins", "method": "(§1) Specificity of recombinant phages to each protein was carried out using ELISA. Each protein (5 μg/ml) was seeded into wells (50 μl per well) in a 96-well ELISA plate and next day, all wells were washed with 0.1% PBST (Tween-20) three times, and blocked at room temperature for 2 hrs using 2% skim milk. Then, the solution was completely removed and the plate was washed with 0.1% PBST three times. Recombinant phages containing the peptide of the present invention were thoroughly mixed with 2% BSA. Each mixture (100 μl) was divided into wells coated with 10 proteins and kept to stand at 27° C. for 2 hrs. After washing with 0.1% PBST 5 times, HRP-conjugated anti-M13 antibodies (1:1,000 dilution; GE Healthcare) were added to each well and incubated at 27° C. for 1 hr. After washing with 0.1% PBST 5 times, 100 μl TMB was divided into each well to induce colorimetric reaction, followed by stopping the reaction adding 100 μl of 1 M HCl. The absorbance was measured at 450 nm."}, "[2]": {"biological_target": "T2, STAT3 (Homo sapiens, UniProt P40763)", "T2 construct": "endogenous in cells; host or cells: DU145", "T2 sequence (P40763 whole entry, species assumed)": "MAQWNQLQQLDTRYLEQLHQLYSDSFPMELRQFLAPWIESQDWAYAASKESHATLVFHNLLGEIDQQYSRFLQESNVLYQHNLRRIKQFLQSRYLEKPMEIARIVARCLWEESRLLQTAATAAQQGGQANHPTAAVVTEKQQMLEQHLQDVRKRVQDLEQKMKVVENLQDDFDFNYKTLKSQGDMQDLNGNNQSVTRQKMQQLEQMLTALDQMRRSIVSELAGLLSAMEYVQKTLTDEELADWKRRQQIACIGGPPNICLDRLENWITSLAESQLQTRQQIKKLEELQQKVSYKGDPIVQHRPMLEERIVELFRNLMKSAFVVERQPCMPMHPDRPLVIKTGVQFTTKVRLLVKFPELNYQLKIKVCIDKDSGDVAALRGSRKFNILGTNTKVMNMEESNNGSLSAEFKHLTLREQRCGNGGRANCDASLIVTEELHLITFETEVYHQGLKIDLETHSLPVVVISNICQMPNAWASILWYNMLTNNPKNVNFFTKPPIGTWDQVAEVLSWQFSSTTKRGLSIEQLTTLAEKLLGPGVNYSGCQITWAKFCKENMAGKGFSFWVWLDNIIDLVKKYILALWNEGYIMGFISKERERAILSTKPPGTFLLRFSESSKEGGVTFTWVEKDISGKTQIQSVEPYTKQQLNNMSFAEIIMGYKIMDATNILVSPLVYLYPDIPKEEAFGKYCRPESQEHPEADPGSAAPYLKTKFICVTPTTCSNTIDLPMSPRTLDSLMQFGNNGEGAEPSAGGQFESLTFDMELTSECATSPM", "experiment": "Phage ELISA to STAT3 (clone screening and specificity)", "details": "recombinant phage ELISA", "method": "XL1-BLUE cells were transformed with phages recovered from the 4th biopanning step having the highest ratio of output phage to input phage, and spread in plate to produce 100-200 of plaques. Using a sterile tip, 60 plaques were inoculated in 2 ml LB-ampicillin (50 μg/ml) media and cultured at 37° C. for 5 hr with vigorous shaking. The transformed cells were infected with Ex helper phages (5×10^9 pfu/ml; OD=0.8-1.0) and cultured at 37° C. for 1 hr with shaking at 200 rpm. After removing the supernatant by centrifuging at 1,000×g for 10 min, the precipitated cells were resuspended in 1 ml LB liquid media supplemented with 50 μg/ml ampicillin and 25 μg/ml kanamycin, and cultured at 30° C. overnight with shaking at 200 rpm. The supernatant was collected by centrifuging at 10,000×g for 20 min at 4° C. and mixed with 2% skim milk, which is used in detection of phage peptides.\nSTAT3 (10 μg/ml), BSA (10 μg/ml) and streptavidin (10 μg/ml) each was added to 30 wells (50 μl per well) in a 96-well ELISA plate and then kept to stand at 4° C. overnight. Next day, all wells were washed with 0.1% PBST three times, and blocked at room temperature for 2 hrs using 2% skim milk diluted with PBS. Then, the solution was removed and the plate was washed with 0.1% PBST three times. […] The absorbance was measured at 450 nm to select phages which had the absorbance above 20-fold higher than BSA. […]"}, "[3]": {"biological_target": "T3, MyD88 (Homo sapiens, UniProt Q99836)", "T3 construct": "purchased Santa Cruz Biotechnology sc-4540 WB", "T3 sequence (Q99836 whole entry)": "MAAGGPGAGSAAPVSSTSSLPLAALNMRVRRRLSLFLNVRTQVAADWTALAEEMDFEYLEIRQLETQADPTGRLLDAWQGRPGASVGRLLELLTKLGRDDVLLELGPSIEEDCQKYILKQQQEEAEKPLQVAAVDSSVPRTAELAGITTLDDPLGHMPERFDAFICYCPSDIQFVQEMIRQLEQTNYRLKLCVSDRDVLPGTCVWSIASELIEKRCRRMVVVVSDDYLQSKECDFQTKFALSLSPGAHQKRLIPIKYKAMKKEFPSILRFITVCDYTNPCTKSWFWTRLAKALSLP", "experiment": "Recombinant phage ELISA specificity to MyD88", "details": "recombinant phage ELISA against several proteins", "method": "as §1\nThe MyD88-specific bipodal-peptide binders were analyzed to have target specificity to MyD88 by the ELISA (FIG. 6f)."}, "[4]": {"biological_target": "T4, nAchR (Nicotinic acetylcholine receptor) (Mus musculus, UniProt P04756)", "T4 construct": "Biotin-[…]; (32 mer), a peptide fragment of nAchR; purchased Anigen Inc. (Korea, Kwangju), custom synthesis", "T4 sequence (P04756 193-224 limits assumed)": "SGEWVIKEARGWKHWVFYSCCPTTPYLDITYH", "experiment": "SPR (Biacore) affinity to nAchR peptide fragment", "method": "Affinity was measured using BIAcore X instrument (Biacore AB, Uppsala, Sweden). ED-B and nAchR were immobilized on streptavidin (SA) chip (Biacore) by injecting 2,000 RU biotinylated-EDB. VEGF was immobilized on CM5 chip (Biacore) using EDC/NHS. PBS (pH 7.4) was used as a running buffer."}, "[5]": {"biological_target": "T5, nAchR (Mus musculus, UniProt P04756)", "T5 construct": "Biotin-[…]; (32 mer), a peptide fragment of nAchR; purchased Anigen Inc. (Korea, Kwangju), custom synthesis", "T5 sequence (P04756 193-224 limits assumed)": "as above", "experiment": "Recombinant phage ELISA specificity to nAchR", "details": "recombinant phage ELISA against several proteins", "method": "as §1"}, "[6]": {"biological_target": "T6, HSA (Homo sapiens, UniProt P02768)", "T6 construct": "purchased Genetex Inc. (Irvine)", "T6 sequence (P02768 25-609)": "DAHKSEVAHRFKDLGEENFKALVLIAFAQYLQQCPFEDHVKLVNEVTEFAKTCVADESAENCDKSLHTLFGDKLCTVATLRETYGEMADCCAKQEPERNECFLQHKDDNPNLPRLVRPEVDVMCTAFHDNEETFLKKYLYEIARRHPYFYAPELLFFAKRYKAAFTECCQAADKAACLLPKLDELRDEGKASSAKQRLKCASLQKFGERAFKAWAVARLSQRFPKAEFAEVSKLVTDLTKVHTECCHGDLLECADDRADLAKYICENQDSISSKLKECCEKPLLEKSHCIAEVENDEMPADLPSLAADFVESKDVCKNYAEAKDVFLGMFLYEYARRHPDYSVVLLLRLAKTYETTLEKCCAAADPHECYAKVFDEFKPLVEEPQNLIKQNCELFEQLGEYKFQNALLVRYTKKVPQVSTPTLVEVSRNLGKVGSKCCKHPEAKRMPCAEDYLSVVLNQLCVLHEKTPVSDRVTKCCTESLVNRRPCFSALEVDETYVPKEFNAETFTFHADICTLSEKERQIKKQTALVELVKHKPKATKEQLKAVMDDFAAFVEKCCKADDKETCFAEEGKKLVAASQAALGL", "experiment": "Recombinant phage ELISA specificity to HSA", "details": "recombinant phage ELISA against several proteins", "method": "as §1"}, "[7]": {"biological_target": "T7, fibronectin ED-B (Homo sapiens, UniProt P02751)", "T7 construct": "After transformation of pET28b vector carrying fibronectin ED-B into BL21 cells; made in house; host or cells: E. coli BL21 (pET28b)", "T7 sequence (P02751 1271-1359 limits assumed)": "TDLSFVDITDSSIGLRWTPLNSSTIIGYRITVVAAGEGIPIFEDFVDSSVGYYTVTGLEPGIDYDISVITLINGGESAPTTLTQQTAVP", "experiment": "Recombinant phage ELISA specificity to fibronectin ED-B", "details": "450 nm, 10 proteins", "method": "as §1"}, "[8]": {"biological_target": "T8, VCAM1 (Homo sapiens, UniProt P19320)", "T8 construct": "made in house; host or cells: E. coli AD494 (pET32a)", "T8 sequence (P19320 25-739)": "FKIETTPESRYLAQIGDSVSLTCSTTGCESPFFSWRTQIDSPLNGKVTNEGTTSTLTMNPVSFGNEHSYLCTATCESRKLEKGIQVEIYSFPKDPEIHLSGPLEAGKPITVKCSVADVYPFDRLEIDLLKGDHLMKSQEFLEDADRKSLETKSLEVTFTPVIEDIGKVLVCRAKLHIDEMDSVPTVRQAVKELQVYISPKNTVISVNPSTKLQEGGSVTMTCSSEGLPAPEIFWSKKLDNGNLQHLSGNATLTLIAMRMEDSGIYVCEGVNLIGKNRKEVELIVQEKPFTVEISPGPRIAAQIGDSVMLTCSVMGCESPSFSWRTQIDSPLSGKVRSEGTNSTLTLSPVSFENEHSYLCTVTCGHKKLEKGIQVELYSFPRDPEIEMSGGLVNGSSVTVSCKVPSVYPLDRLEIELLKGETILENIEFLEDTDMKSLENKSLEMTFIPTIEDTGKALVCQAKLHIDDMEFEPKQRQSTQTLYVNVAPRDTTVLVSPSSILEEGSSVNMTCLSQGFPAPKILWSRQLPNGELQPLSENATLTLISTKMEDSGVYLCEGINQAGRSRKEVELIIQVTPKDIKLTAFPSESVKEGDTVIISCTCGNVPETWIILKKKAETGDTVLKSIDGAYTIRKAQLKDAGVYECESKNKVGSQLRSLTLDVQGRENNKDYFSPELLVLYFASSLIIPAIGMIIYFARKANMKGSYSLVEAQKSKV", "experiment": "Recombinant phage ELISA specificity to VCAM1", "details": "recombinant phage ELISA against several proteins", "method": "as §1"}}, "note": "Residues, ends and D or L forms follow the SMILES beside them. No end group written: not given here.", "data": [{"molecule": "HANFFQGSWTWENGKWTWKGWKYNQS [Peptide 1 (Table 3b)]", "values": [{"measurement": "specificity for VEGF", "setting": "[1]", "value": "has specificity"}]}, {"molecule": "QAYYIPGSWTWENGKWTWKGLWGPEF [Peptide 1 (STAT3), QAYYIP GSWTWENGKWTWKG LWGPEF]", "values": [{"measurement": "specificity to STAT3 compared to other proteins", "setting": "[2]", "value": "specificity to STAT3"}]}, {"molecule": "HSHAFYGSWTWENGKWTWKGNPGWWT [Peptide 1 (Table 3f)]", "values": [{"measurement": "specificity for MyD88", "setting": "[3]", "value": "has specificity"}]}, {"molecule": "EASFWLGSWTWENGKWTWKGKGTLNR [Peptide 1 (Table 3d)]", "values": [{"measurement": "Kd", "setting": "[4]", "value": 73, "unit": "nM"}, {"measurement": "specificity for nAchR", "setting": "[5]", "value": "has specificity"}]}, {"molecule": "AASPYKGSWTWENGKWTWKGGWRMKM [Peptide 1 (Table 3e)]", "values": [{"measurement": "specificity for HSA", "setting": "[6]", "value": "has specificity"}]}, {"molecule": "HCSSAVGSWTWENGKWTWKGIIRLEQ [2 (Table 3a)]", "values": [{"measurement": "absorbance for ED-B higher than that of other proteins", "setting": "[7]", "value": "above 30 fold"}]}, {"molecule": "CC[C@H](C)[C@H](NC(=O)[C@@H]1CCCN1C(=O)[C@H](CS)NC(=O)[C@@H](NC(=O)[C@H](CO)NC(=O)[C@@H]1CCCN1C(=O)CNC(=O)[C@H](CCCCN)NC(=O)[C@H](Cc1c[nH]c2ccccc12)NC(=O)[C@@H](NC(=O)[C@H](Cc1c[nH]c2ccccc12)NC(=O)[C@H](CCCCN)NC(=O)CNC(=O)[C@H](CC(N)=O)NC(=O)[C@H](CCC(=O)O)NC(=O)[C@H](Cc1c[nH]c2ccccc12)NC(=O)[C@@H](NC(=O)[C@H](Cc1c[nH]c2ccccc12)NC(=O)[C@H](CO)NC(=O)CNC(=O)[C@@H](NC(=O)[C@H](CS)NC(=O)[C@H](CC(=O)O)NC(=O)[C@H](CCCNC(=N)N)NC(=O)[C@H](C)NC(=O)[C@@H](N)CCC(N)=O)[C@@H](C)O)[C@@H](C)O)[C@@H](C)O)[C@@H](C)CC)C(=O)O", "note": "[Peptide 1 (Table 3c)] (H-QARDCTGSWTWENGKWTWKGPSICPI-OH; N-terminus and C-terminus assumed)", "values": [{"measurement": "specificity for VCAM1", "setting": "[8]", "value": "has specificity"}]}, {"molecule": "HGFQWP GSWTWENGKWTWKG AYQFLK (GSWTWENGKWTWKGAYQFLK) [Peptide 2 (STAT3)]", "values": [{"measurement": "specificity to STAT3 compared to other proteins", "setting": "[2]", "value": "specificity to STAT3"}]}]}
